Source: PMC7180572, “5-Alkylamino-N-phenylpyrazine-2-carboxamides: Design, Preparation, and Antimycobacterial Evaluation” (Molecules, 2020)
Converted amounts (≈) assume the structure as drawn. Like-named read-outs stand apart in the source and are kept apart here.

Legend:
[1] = system: HepG2 cells; assay: HepG2 cytotoxicity, CellTiter 96 (MTS) assay; type: cell-based, human; conditions: for IC50: Homo sapiens, HepG2, 24 h incubation, > means higher concentration not reproducible due to precipitation, read-out: HepG2 IC50
[2] = system: M. kansasii CNCTC My 235/80 (ATCC 12478); assay: 96 well plate microdilution broth method with Alamar Blue; type: cell-based; conditions: Mycobacterium kansasii, ATCC12478; Middlebrook 7H9 broth pH 6.6; read-out: MIC Mycobacterium kansasii
[3] = type: physicochemical
Experimental: As a complementary test, final compounds were tested for in vitro activity against selected fungal and bacterial pathogens of clinical importance. The microdilution broth method was performed according to The European Committee on Antimicrobial Susceptibility Testing (EUCAST) instructions with slight modifications. The minimum inhibitory concentration was expressed in µM. Not all compounds were evaluated due to the fact of a problem with solubility which occurred for 18 samples. […] See Supplementary Materials for the list of tested strains, methodology, and full results.

[4] = system: Mycobacterium smegmatis DSM 43465 (ATCC 607); assay: Microdilution broth, modified Microplate Alamar Blue Assay, whole cell growth inhibition; type: cell-based; conditions: Mycolicibacterium smegmatis, read-out: MIC Mycobacterium smegmatis
[5] = system: M. avium ssp. avium CNCTC My 80/72 (ATCC 15769); assay: 96 well plate microdilution broth method with Alamar Blue; type: cell-based; conditions: Mycobacterium avium, ATCC15769; Middlebrook 7H9 broth pH 6.6; read-out: MIC Mycobacterium avium
[6] = system: Mycobacterium aurum DSM 43999 (ATCC 23366); assay: Microdilution broth, modified Microplate Alamar Blue Assay, whole cell growth inhibition; type: cell-based; conditions: Mycolicibacterium aurum, read-out: MIC Mycobacterium aurum
[7] = system: Mycobacterium tuberculosis H37Ra ITM-M006710 (ATCC 9431); assay: as above; type: cell-based; conditions: Mycobacterium tuberculosis, read-out: MIC Mtb H37Ra
[8] = in vitro, Middlebrook 7H9 broth, resazurin

Structure (SMILES) | IC50 [1] [µM] | MIC [2] [µg/mL] | Solubility problem in antibacterial/antifungal testing [3] | MIC [4, 8] [µg/mL] | melting point [°C] | MIC [5] [µg/mL] | MIC [6, 8] [µg/mL] | MIC [7, 8] [µg/mL] | SI, selectivity index ([1]; IC50 (HepG2)/MIC against Mtb H37Ra (in µM)) | MIC [4] [µg/mL] | MIC [6] [µg/mL] | MIC [7] [µg/mL]
CCCCCNc1cnc(C(=O)Nc2ccc(Cl)cc2O)cn1 [Compound 6c, N-(4-chloro-2-hydroxyphenyl)-5-(pentylamino)pyrazine-2-carboxamide] | 81.1 | 25 (≈ 74.7 µM) | did not dissolve in DMSO | 3.91 (≈ 11.7 µM) | 206.5 to 208.7 | > 100 | ≥ 500 | ≥ 500 | – | – | – | –
CCCCCCNc1cnc(C(=O)Nc2ccc(Cl)cc2O)cn1 [Compound 6d, N-(4-chloro-2-hydroxyphenyl)-5-(hexylamino)pyrazine-2-carboxamide] | > 50 | 25 (≈ 71.7 µM) | did not dissolve in DMSO | 3.91 (≈ 11.2 µM) | 201.7 to 204.9 | > 100 | ≥ 500 | 3.13 (≈ 8.97 µM) | >5.27 | – | – | –
CCCCCCCNc1cnc(C(=O)Nc2cc(Cl)ccc2O)cn1 [Compound 7e, N-(5-chloro-2-hydroxyphenyl)-5-(heptylamino)pyrazine-2-carboxamide] | > 10 | – | did not dissolve in DMSO | – | 243.6 to 246 | – | – | – | – | 31.2 (≈ 86.1 µM) | ≥ 500 | ≥ 500
CCCCCCCCNc1cnc(C(=O)Nc2cc(Cl)ccc2O)cn1 [Compound 7f, N-(5-chloro-2-hydroxyphenyl)-5-(octylamino)pyrazine-2-carboxamide] | > 50 | – | did not dissolve in DMSO | 250 (≈ 663 µM) | 239.7 to 242.4 | – | ≥ 500 | ≥ 500 | – | – | – | –
NNC(=O)c1ccncc1 [INH, isoniazid, reference compound] | – | 25 (≈ 182 µM) | – | 7.81 to 15.6 (≈ 56.9 to 114 µM) | – | 25 (≈ 182 µM) | 3.91 to 7.81 (≈ 28.5 to 56.9 µM) | 0.125 to 0.25 (≈ 0.911 to 1.82 µM) | – | – | – | –
